From paper PMC10499581 (Journal of Ginseng Research, 2023)
Values belong to the molecule of their own block, whether it stands above or below them.

Experiments:
[1] = biological target: T1, PURA (Rattus norvegicus, UniProt A0A8I5YBE8); assay: biolayer interferometry, single concentration; assay type: binding; conditions: 30 °C, His-tagged PURA immobilized
T1 sequence (A0A8I5YBE8 1-321): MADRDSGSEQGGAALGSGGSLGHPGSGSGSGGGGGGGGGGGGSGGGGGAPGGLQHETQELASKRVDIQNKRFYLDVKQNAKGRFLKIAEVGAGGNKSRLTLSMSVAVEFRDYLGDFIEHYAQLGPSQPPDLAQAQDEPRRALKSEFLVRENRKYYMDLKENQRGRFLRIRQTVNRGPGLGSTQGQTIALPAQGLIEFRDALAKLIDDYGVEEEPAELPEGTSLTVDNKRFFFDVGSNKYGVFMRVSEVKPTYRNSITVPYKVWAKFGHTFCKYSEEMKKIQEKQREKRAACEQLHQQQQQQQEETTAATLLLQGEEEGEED

[2] = biological target: T2, Pur-alpha (PURA), wild type, recombinant His-tagged (rat, UniProt A0A8I5YBE8 1-321); assay: BLI
T2 sequence (looked up): T1 sequence (A0A8I5YBE8 1-321)

Molecule: CC(C)=CCC[C@](C)(O[C@@H]1O[C@H](CO)[C@@H](O)[C@H](O)[C@H]1O)[C@H]1CC[C@]2(C)[C@@H]1[C@H](O)C[C@@H]1[C@@]3(C)CC[C@H](O)C(C)(C)[C@@H]3CC[C@]12C [CK]
wavelength shift at 300 μM [1]: The direct binding strength of PURA to Rb1,Re, Rh1, Rg1, F1, Rd, Rh2,CK, PPD

Molecule: CC(C)=CCC[C@](C)(O[C@@H]1O[C@H](CO)[C@@H](O)[C@H](O)[C@H]1O)[C@H]1CC[C@]2(C)[C@@H]1[C@H](O)C[C@@H]1[C@@]3(C)CC[C@H](O)C(C)(C)[C@@H]3[C@@H](O)C[C@]12C [F1]
wavelength shift at 300 μM [1]: The direct binding strength of PURA to Rb1,Re, Rh1, Rg1, F1, Rd, Rh2,CK, PPD

Molecule: CC(C)=CCC[C@](C)(O)[C@H]1CC[C@]2(C)[C@@H]1[C@H](O)C[C@@H]1[C@@]3(C)CC[C@H](O)C(C)(C)[C@@H]3[C@@H](O[C@@H]3O[C@H](CO)[C@@H](O)[C@H](O)[C@H]3O)C[C@]12C [Rh1]
wavelength shift at 300 μM [1]: The direct binding strength of PURA to Rb1,Re, Rh1, Rg1, F1, Rd, Rh2,CK, PPD

Molecule: CC(C)=CCC[C@](C)(O)[C@H]1CC[C@]2(C)[C@@H]1[C@H](O)C[C@@H]1[C@@]3(C)CC[C@H](O[C@@H]4O[C@H](CO)[C@@H](O)[C@H](O)[C@H]4O)C(C)(C)[C@@H]3CC[C@]12C [Rh2]
wavelength shift at 300 μM [1]: The direct binding strength of PURA to Rb1,Re, Rh1, Rg1, F1, Rd, Rh2,CK, PPD

Kd [2]: 1930 nM
B1: Pur-beta (PURB) (natural protein, UniProt Q68A21 1-315, looked up)
chain: MADGDSGSERGGGGPGSFQPAPRGGGGPGGEQETQELASKRLDIQNKRFYLDVKQNAKGRFLKIAEVGAGGSKSRLTLSMAVAAEFRDSLGDFIEHYAQLGPSSPEQLAAGAEEGGGPRRALKSEFLVRENRKYYLDLKENQRGRFLRIRQTVNRGGGGFGGGPGPGGLQSGQTIALPAQGLIEFRDALAKLIDDYGGEDDELAGGPGGGAGGPGGGLYGELPEGTSITVDSKRFFFDVGCNKYGVFLRVSEVKPSYRNAITVPFKAWGKFGGAFCRYADEMKEIQERQRDKLYERRGGGSGGGDESEGEEVDED
